Reference: patent publication US12415794B2 (Edgewise Therapeutics, Inc., priority 2018, dated 2025)

Assays:
[1] = target: skeletal myofibrils (myosin ATPase); experiment: Skeletal Myofibril ATPase Assay; format: biochemical
Protocol: FIG. 7 depicts the buffer preparation procedures of Buffer A and Buffer B for the skeletal myofibril ATPase assay described in Example 12. Buffers were stored on ice until use.
Example 12: Skeletal Myofibril ATPase Assay
(§1) Overview: Myosin ATPase activity is assessed by using a coupled reaction system, in which ADP generated by the myosin ATPase function is coupled to the disappearance of NADH through the pyruvate kinase/lactate dehydrogenase (PK-LDH) system. ATPase activity produces ADP, which is used as a substrate for PK to produce pyruvate and regenerate ATP. The pyruvate is then used as a substrate by LDH to oxidize NADH to NAD+. The rate of the reaction is monitored through the time-dependent disappearance of NADH using absorbance at 340 nm. Inhibition of ATPase activity by the assayed compounds is indicated by a reduced rate of NADH loss, relative to vehicle-treated controls, over the experimental time window. To assess the selectivity of the assayed compounds for skeletal myofibrils, the compounds are counter-screened in cardiac myofibrils.
Materials: The following stock solutions and reagents were used in the Skeletal Myofibril ATPase Assay:
Stock Solutions of pCa buffer. Combine PIPES, CaCl2, and EGTA solutions with 70 mL of water. Adjust pH to 7.0 and bring final volume to 100 mL.
Skeletal Myofibril ATPase Assay Procedure: BSA, ATP, NADH, PEP, and DTT solutions were thawed at room temperature, then transferred to ice. Pellet-frozen myofibrils were transferred with approximately twice the required volume into a sufficiently large tube and capped. Myofibrils were thawed by rolling in a water bath for approximately 15 min at room temperature and cooled on ice. Buffers A and B were prepared by adjusting volumes as necessary for required number of wells and stored on ice. 0.5 μL of the compounds to be assayed were added into wells. 25 μL of Buffer A was dispensed into the wells, followed by 25 μL of Buffer B. The wells were measured for absorbance at 340 nm, using a kinetic protocol in which the wells are read every 1.5-2 min for 45 min. The slope of the data was approximated by subtracting the minimum absorbance value from the maximum value for each well. This was accomplished either in the SoftMax Pro software or in a spreadsheet program such as Excel. Using GraphPad Prism 8.0, the data was normalized by assigning a value of 100% to the 1% DMSO vehicle wells. Typically, a normalized 0% value was simply assigned to a (Max−Min) value of 0. The normalized data was fit to a Four Parameter Logistic sigmoidal equation, constraining the bottom to be 0 or greater. Compounds of Table 1, 2, and 3 were tested and results of the assay appear in Tables 4a-4c. A=IC50 is less than or equal to 10 μM; B=IC50 is greater than 10 μM and less than 100 μM; C=IC50 is greater than 100 μM.

[2] = target: T1, cardiac myofibrils (myosin ATPase); experiment: Cardiac Myofibril ATPase Assay (counter screen); format: biochemical; conditions: myofibrils 1.0 mg/mL, KCl omitted
T1 construct: frozen myofibril pellets obtained from cardiac tissue; from tissue
Protocol: as §1
Example 13: Cardiac Myofibril ATPase Assay
Following example 11, the counter screen was done using frozen myofibril pellets obtained from cardiac tissue. The assay was done in the same manner as above, with the following notable exceptions: the final well concentration of myofibrils was 1.0 mg/mL and KCl was omitted from the recipe.
Compounds of Table 1 to 3 were tested, and results of the assays appear in Tables 5a-5c herein. A=IC50 is less than or equal to 10 μM; B=IC50 is greater than 10 μM and less than 100 μM; C=IC50 is greater than 100 μM; and […].

T1 sequence (P12883 whole entry): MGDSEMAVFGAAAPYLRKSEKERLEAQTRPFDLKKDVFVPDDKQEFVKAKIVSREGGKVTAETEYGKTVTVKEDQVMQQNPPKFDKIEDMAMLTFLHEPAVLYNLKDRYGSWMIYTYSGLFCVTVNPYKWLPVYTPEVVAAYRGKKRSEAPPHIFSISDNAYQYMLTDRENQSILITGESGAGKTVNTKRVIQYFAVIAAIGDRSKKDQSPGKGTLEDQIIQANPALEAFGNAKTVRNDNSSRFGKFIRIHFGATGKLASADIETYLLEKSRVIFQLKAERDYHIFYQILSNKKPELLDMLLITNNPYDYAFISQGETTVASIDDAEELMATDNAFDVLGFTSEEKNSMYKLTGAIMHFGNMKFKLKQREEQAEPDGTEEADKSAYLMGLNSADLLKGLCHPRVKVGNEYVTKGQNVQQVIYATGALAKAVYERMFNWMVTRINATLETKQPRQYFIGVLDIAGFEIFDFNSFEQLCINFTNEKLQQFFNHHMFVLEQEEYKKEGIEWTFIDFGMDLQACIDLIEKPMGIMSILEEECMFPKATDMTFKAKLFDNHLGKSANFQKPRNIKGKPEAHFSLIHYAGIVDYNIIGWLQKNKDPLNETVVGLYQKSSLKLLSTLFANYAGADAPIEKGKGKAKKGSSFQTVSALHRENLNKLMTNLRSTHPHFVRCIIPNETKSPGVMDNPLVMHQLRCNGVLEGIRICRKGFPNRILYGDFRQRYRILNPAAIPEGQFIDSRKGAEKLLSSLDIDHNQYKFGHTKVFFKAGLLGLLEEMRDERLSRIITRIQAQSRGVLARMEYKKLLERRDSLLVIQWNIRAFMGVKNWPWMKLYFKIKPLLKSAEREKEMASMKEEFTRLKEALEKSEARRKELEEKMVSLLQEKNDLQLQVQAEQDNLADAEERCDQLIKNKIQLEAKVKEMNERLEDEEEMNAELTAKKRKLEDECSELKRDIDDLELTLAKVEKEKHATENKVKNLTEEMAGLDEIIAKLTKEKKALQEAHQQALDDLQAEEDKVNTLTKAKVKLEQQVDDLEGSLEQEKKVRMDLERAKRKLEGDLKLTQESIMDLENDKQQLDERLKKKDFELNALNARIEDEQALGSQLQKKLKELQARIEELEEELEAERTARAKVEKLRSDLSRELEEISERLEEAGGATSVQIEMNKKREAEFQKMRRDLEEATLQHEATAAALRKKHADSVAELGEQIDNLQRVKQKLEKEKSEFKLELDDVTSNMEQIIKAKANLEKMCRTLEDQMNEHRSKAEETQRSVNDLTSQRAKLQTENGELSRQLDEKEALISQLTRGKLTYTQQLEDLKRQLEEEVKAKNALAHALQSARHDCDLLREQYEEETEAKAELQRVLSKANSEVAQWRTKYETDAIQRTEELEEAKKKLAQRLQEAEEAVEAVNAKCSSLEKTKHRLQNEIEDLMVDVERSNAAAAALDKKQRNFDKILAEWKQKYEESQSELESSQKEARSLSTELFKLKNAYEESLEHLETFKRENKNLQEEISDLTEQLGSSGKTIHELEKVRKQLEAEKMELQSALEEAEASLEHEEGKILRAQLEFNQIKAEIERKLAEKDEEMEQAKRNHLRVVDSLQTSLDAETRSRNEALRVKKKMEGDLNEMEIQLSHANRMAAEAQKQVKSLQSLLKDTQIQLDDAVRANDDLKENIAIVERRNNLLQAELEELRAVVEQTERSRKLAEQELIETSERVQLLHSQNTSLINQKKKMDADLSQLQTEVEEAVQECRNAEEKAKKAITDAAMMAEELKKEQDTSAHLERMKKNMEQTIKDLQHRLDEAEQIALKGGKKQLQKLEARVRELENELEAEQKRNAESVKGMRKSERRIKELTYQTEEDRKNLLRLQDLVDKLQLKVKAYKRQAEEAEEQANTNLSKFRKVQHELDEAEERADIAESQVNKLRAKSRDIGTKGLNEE
T1 sequence (P08590 whole entry partner): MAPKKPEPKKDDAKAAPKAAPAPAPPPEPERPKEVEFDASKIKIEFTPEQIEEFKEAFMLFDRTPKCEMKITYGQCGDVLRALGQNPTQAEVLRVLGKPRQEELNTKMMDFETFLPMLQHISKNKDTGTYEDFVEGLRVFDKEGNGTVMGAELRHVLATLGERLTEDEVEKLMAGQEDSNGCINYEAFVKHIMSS
T1 sequence (P10916 whole entry partner): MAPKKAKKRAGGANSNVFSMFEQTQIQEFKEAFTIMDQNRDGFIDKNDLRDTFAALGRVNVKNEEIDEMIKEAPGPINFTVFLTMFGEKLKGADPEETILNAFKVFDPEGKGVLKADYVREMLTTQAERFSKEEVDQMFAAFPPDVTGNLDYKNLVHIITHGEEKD

| Compound | IC50 ([1]; Table 4A) [µM] | IC50 ([2]; Table 5C) [µM] | further results |
| --- | --- | --- | --- |
| C[C@H](NC(=O)Cn1nc(-c2ccc(OC(F)F)nc2)ccc1=O)c1ccnn1C [Compound I-29, (S)-2-(3-(6-(difluoromethoxy)pyridin-3-yl)-6-oxopyridazin-1(6H)-yl)-N-(1-(1-methyl-1H-pyrazol-5-yl)ethyl)acetamide] | > 100 |  | IC50 ([2]; Table 5A): > 100 µM |
| CCNC(=O)Cn1nc(-c2ccc(OCC(F)(F)F)nc2)ccc1=O [Compound I-13, N-ethyl-2-(6-oxo-3-(6-(2,2,2-trifluoroethoxy)pyridin-3-yl)pyridazin-1(6H)-yl)acetamide] | 10 to 100 |  | IC50 ([2]; Table 5A): > 100 µM |
| CCNC(=O)Cn1nc(-c2ccc(NC)nc2)ccc1=O [Compound I-47, N-ethyl-2-(3-(6-(methylamino)pyridin-3-yl)-6-oxopyridazin-1(6H)-yl)acetamide] | < 10 |  |  |
| CCNC(=O)Cn1nc(-c2ccc(OC)cc2)ccc1=O [IIIa-3, N-ethyl-2-(3-(4-methoxyphenyl)-6-oxopyridazin-1(6H)-yl)acetamide] |  | > 100 | IC50 ([1]; Table 4C): < 10 µM |
| CCNC(=O)Cn1nc(-c2cnc(OCCOC(F)(F)F)nc2)ccc1=O [Compound I-49, N-ethyl-2-(6-oxo-3-(2-(2-(trifluoromethoxy)ethoxy)pyrimidin-5-yl)pyridazin-1(6H)-yl)acetamide] | 10 to 100 |  |  |
| O=C(Cn1nc(-c2ccc(NC34CC(C3)C4)nc2)ccc1=O)NC1CCC1 [Compound I-54, 2-(3-(6-(bicyclo[1.1.1]pentan-1-ylamino)pyridin-3-yl)-6-oxopyridazin-1(6H)-yl)-N-cyclobutylacetamide] | < 10 |  | IC50 ([2]; Table 5A): > 100 µM |
| CC(C)CNC(=O)Cn1nc(-c2ccc(Cl)cc2)ccc1=O [IIIc-35, 2-(3-(4-chlorophenyl)-6-oxopyridazin-1(6H)-yl)-N-isobutylacetamide] |  | > 100 | IC50 ([1]; Table 4C): 10 to 100 µM |
| COc1ccc(CNC(=O)Cn2nc(-c3ccc(OC)cc3)ccc2=O)cc1 [IIIb-34, N-(4-methoxybenzyl)-2-(3-(4-methoxyphenyl)-6-oxopyridazin-1(6H)-yl)acetamide] |  | > 100 | IC50 ([1]; Table 4C): 10 to 100 µM |
| COc1ccc(-c2ccc(=O)n(CC(=O)NCC(C)C)n2)cc1 [IIIb-29, N-isobutyl-2-(3-(4-methoxyphenyl)-6-oxopyridazin-1(6H)-yl)acetamide] |  | > 100 | IC50 ([1]; Table 4C): 10 to 100 µM |
| COc1ccc(-c2ccc(=O)n(CC(=O)NCc3nccn3C)n2)cc1 [IIIa-33, 2-(3-(4-methoxyphenyl)-6-oxopyridazin-1(6H)-yl)-N-((1-methyl-1H-imidazol-2-yl)methyl) acetamide] |  | > 100 | IC50 ([1]; Table 4C): > 100 µM |
| O=C(Cn1nc(-c2ccc(NC34CC(C3)C4)nc2)ccc1=O)N1CCC1 [Compound I-39, 2-(2-(azetidin-1-yl)-2-oxoethyl)-6-(6-(bicyclo[1.1.1]pentan-1-ylamino)pyridin-3-yl)pyridazin-3(2H)-one] | 10 to 100 |  |  |
| O=C(Cn1nc(-c2ccccc2)ccc1=O)NCCC1=CCCCC1 [IIIc-48, N-(2-(cyclohex-1-en-1-yl)ethyl)-2-(6-oxo-3-phenylpyridazin-1(6H)-yl)acetamide] |  | > 100 | IC50 ([1]; Table 4C): < 10 µM |
| CCNC(=O)Cn1nc(-c2ccc(N3CCCC3C(F)(F)F)nc2)ccc1=O (centres unmarked) [Compound I-48, N-ethyl-2-(6-oxo-3-(6-(2-(trifluoromethyl)pyrrolidin-1-yl)pyridin-3-yl)pyridazin-1(6H)-yl)acetamide] | < 10 |  |  |
| O=C(Cn1nc(-c2ccc(NC34CC(C3)C4)nc2)ccc1=O)NC12CC(C1)C2 [Compound I-46, N-(bicyclo[1.1.1]pentan-1-yl)-2-(3-(6-(bicyclo[1.1.1]pentan-1-ylamino)pyridin-3-yl)-6-oxopyridazin-1(6H)-yl)acetamide] | < 10 |  |  |
| CCNC(=O)Cn1nc(-c2ccc(N3CC4CC(C3)O4)nc2)ccc1=O [Compound I-43, 2-(3-(6-(6-oxa-3-azabicyclo[3.1.1]heptan-3-yl)pyridin-3-yl)-6-oxopyridazin-1(6H)-yl)-N-ethylacetamide] | 10 to 100 |  |  |
| CCNC(=O)Cn1nc(-c2ccc(NC34CCC(CC3)CC4)nc2)ccc1=O [Compound I-41, 2-(3-(6-(bicyclo[2.2.2]octan-1-ylamino)pyridin-3-yl)-6-oxopyridazin-1(6H)-yl)-N-ethylacetamide] | 10 to 100 |  |  |

| Compound | IC50 ([1]; Table 4A) [µM] | IC50 ([2]; Table 5C) [µM] | further results |
| --- | --- | --- | --- |
| CCNC(=O)Cn1nc(-c2cnc(NC34CC(O)(C3)C4)nc2)ccc1=O [Compound I-42, N-ethyl-2-(3-(2-((3-hydroxybicyclo[1.1.1]pentan-1-yl)amino)pyrimidin-5-yl)-6-oxopyridazin-1(6H)-yl)acetamide] | 10 to 100 |  |  |
| CC(=O)Nc1ccc(-c2ccc(=O)n(CC(=O)NCc3ccccc3Cl)n2)cc1 [II-8, 2-(3-(4-acetamidophenyl)-6-oxopyridazin-1(6H)-yl)-N-(2-chlorobenzyl) acetamide] |  |  | IC50 ([1]; Table 4B): < 10 µM |
| CCNC(=O)Cn1nc(-c2ccc(N3CC(COC(F)(F)F)C3)nc2)ccc1=O [Compound I-40, N-ethyl-2-(6-oxo-3-(6-(3-((trifluoromethoxy)methyl)azetidin-1-yl)pyridin-3-yl)pyridazin-1(6H)-yl)acetamide] | 10 to 100 |  |  |
| O=C(Cn1nc(-c2ccc(F)cc2)ccc1=O)Nc1ccccc1F [IIIc-45, N-(2-fluorophenyl)-2-(3-(4-fluorophenyl)-6-oxopyridazin-1(6H)-yl)acetamide] |  | > 100 |  |
| CCOc1ccc(-c2ccc(=O)n(CC(=O)N3CCCc4ccccc43)n2)cc1 [IIIc-8, 2-(2-(3,4-dihydroquinolin-1(2H)-yl)-2-oxoethyl)-6-(4-ethoxyphenyl)pyridazin-3(2H)-one] |  | > 100 |  |
| O=C(Cn1nc(-c2ccc(Cl)cc2)ccc1=O)NCc1ccccc1Cl [IIIc-14, N-(2-chlorobenzyl)-2-(3-(4-chlorophenyl)-6-oxopyridazin-1(6H)-yl)acetamide] |  | > 100 |  |
| O=C(Cn1nc(-c2ccc(Br)cc2)ccc1=O)NC1CCCC1 [IIIc-41, 2-(3-(4-bromophenyl)-6-oxopyridazin-1(6H)-yl)-N-cyclopentylacetamide] |  | > 100 |  |
| CC[C@H](C)NC(=O)Cn1nc(-c2ccc(OC(F)F)nc2)ccc1=O [Compound I-67, (S)-N-(sec-butyl)-2-(3-(6-(difluoromethoxy)pyridin-3-yl)-6-oxopyridazin-1(6H)-yl)acetamide] | < 10 |  |  |
| O=C(Cn1nc(-c2ccc(F)cc2)ccc1=O)N1CCCC1 [IIIc-46, 6-(4-fluorophenyl)-2-(2-oxo-2-(pyrrolidin-1-yl)ethyl)pyridazin-3(2H)-one] |  | > 100 |  |
| CCNC(=O)Cn1nc(-c2ccc(OCC3(F)COC3)cc2)ccc1=O [IIIa-27, N-ethyl-2-(3-(4-((3-fluorooxetan-3-yl)methoxy)phenyl)-6-oxopyridazin-yl)acetamide] |  | > 100 |  |
| O=C(Cn1nc(-c2ccc(Cl)cc2)ccc1=O)NC1CCCC1 [IIIc-37, 2-(3-(4-chlorophenyl)-6-oxopyridazin-1(6H)-yl)-N-cyclopentylacetamide] |  | > 100 |  |
| O=C(Cn1nc(-c2ccc(Cl)cc2)ccc1=O)NC1CC1 [IIIc-36, 2-(3-(4-chlorophenyl)-6-oxopyridazin-1(6H)-yl)-N-cyclopropylacetamide] |  | > 100 |  |
| O=C(Cn1nc(-c2ccc(Cl)cc2)ccc1=O)NCc1cccc(Cl)c1 [IIIc-34, N-(3-chlorobenzyl)-2-(3-(4-chlorophenyl)-6-oxopyridazin-1(6H)-yl)acetamide] |  | > 100 |  |
| O=C(Cn1nc(-c2ccccc2)ccc1=O)N(C1=CCCCC1)C1CC1 [IIIc-59, N-(cyclohex-1-en-1-yl)-N-cyclopropyl-2-(6-oxo-3-phenylpyridazin-1(6H)-yl)acetamide] |  | > 100 |  |
| CC(C)NC(=O)Cn1nc(-c2ccc(Cl)cc2)ccc1=O [IIIc-15, 2-(3-(4-chlorophenyl)-6-oxopyridazin-1(6H)-yl)-N-isopropylacetamide] |  | > 100 |  |
| COc1ccc(-c2ccc(=O)n(CC(=O)N3CCCC3)n2)cc1 [IIIc-10, 6-(4-methoxyphenyl)-2-(2-oxo-2-(pyrrolidin-1-yl)ethyl)pyridazin-3(2H)-one] |  | > 100 |  |
